Data from US9340539B2, “Hepatitis C inhibitor compounds” (priority 2011, dated 2016).

System: HCVpp (HCV E1/E2, isolate Con1) entry into Hep3B2.1-7 cells
Assay: microbe, parasite or virus in culture
Format: cell-based
Details: Hepatitis C virus, 72 h, read-out: EC50 (nM) (Ex. 58)

Point of comparison: `CC1(C)CC2(CCOCC2)C(=O)c2[nH]c3ccc(C(=O)NC4CCS(=O)(=O)C4)cc3c21` (stereo not drawn) [Compound 5003], EC50 385 nM. Against it:
- CC1(C)CC(C)(C)c2c([nH]c3cnc(C(=O)NCc4ccccn4)cc23)C1=O [Compound 9004] — 4.5-fold lower, 85 nM
- CC1(C)CC2(CC2)C(=O)c2[nH]c3ccc(C(=O)NC4CCN(C(=O)c5nc[nH]n5)C4)cc3c21 (stereo not drawn) [Compound 5008] — 18-fold lower, 22 nM
- CC1(C)CC(C)(C)c2c([nH]c3ccc(C(=O)NC4CCN(CCF)C4)cc23)C1=O (stereo not drawn) [Compound 2003] — 3.3-fold lower, 117 nM
- CC1(C)CC(C)(C)c2c([nH]c3ccc(C(=O)N[C@H]4CC[C@H](NCC5CC5)CC4)cc23)C1=O [Compound 7019] — 4.7-fold lower, 82 nM
- CC1(C)CC(C)(C)c2c([nH]c3ccc(C(=O)NC4CCN(S(C)(=O)=O)C4)cc23)C1=O (stereo not drawn) [Compound 2058] — 9.9-fold lower, 39 nM
- CN1CCC[C@H](NC(=O)c2ccc3[nH]c4c(c3c2)C(C)(C)CC(C)(C)C4=O)C1 [Compound 3006] — 3.8-fold lower, 102 nM
- CC1(C)CC(C)(C)c2c([nH]c3ccc(C(=O)NC4CCN(C(=O)c5ccccn5)C4)cc23)C1=O (stereo not drawn) [Compound 2026] — 11-fold lower, 36 nM
- CC1(C)CC2(CCC2)c2c([nH]c3ccc(C(=O)NC4CCN(C(=O)c5nc[nH]n5)C4)cc23)C1=O (stereo not drawn) [Compound 6016] — 110-fold lower, 3.4 nM
- CC1(C)CC(C)(C)c2c([nH]c3ccc(C(=O)Nc4cnccn4)cc23)C1=O [Compound 7050] — 4.4-fold lower, 88 nM
- CC1(C)CC(C)(C)c2c([nH]c3ccc(C(=O)NC4CCS(=O)(=O)CC4)cc23)C1=O [Compound 7008] — 1.9-fold lower, 201 nM
- O=C(NC1CCS(=O)(=O)C1)c1ccc2[nH]c3c(c2c1)C1(CCCC3=O)CC1 (stereo not drawn) [Compound 1104] — 3.2-fold lower, 122 nM
- COCC1(C)CC(C)(C)c2c([nH]c3ccc(C(=O)NC4CCN(C(=O)c5n[nH]c(N)n5)C4)cc23)C1=O (stereo not drawn) [Compound 5017] — 41-fold lower, 9.3 nM
- Cn1cncc1CNC(=O)CNC(=O)c1ccc2[nH]c3c(c2c1)C(C)(C)CC(C)(C)C3=O [Compound 7010] — 3.1-fold lower, 126 nM
- COC(=O)c1ccc2[nH]c3c(c2c1)C(C)(C)CC(C)(C)C3=O [Compound 1107] — 2-fold lower, 195 nM
- CC1(C)CC(C)(C)c2c([nH]c3ccc(-c4nnc(NC5CCS(=O)(=O)C5)o4)cc23)C1=O (stereo not drawn) [Compound 1103] — 11-fold lower, 34 nM
- CC1CC(C)(C)c2c([nH]c3ccc(C(=O)NC4CCS(=O)(=O)C4)cc23)C1=O (stereo not drawn) [Compound 5014] — 2.1-fold lower, 187 nM
- CC1(C)CC2(CC2)c2c([nH]c3ccc(C(=O)NCCCn4cncn4)cc23)C1=O [Compound 6001] — 5.8-fold lower, 66 nM
